Reference: US10881636B2, “Dihydroartemisinin-steroid conjugate and preparation method and application thereof” (YUNBAIYAO ZHENGWU SCIENCE AND TECHNOLOGY (SHANGHAI) CO., …, priority 2017, dated 2021)
Read-outs that look alike come from different tables or passages of the source.

Tests used:
[1] = Cytotoxicity on normal cells, CCK-8 assay; format: cell-based; settings: African green monkey
Method: (§1) African green monkey kidney cells-Vero cells (CCL-81) were used as normal cells to evaluate the cytotoxic effects of the compounds. Under the intervention of such compounds, the living cells can be stained using a cell proliferation-cytotoxicity assay kit Cell Counting Kit-8 (CCK-8 solution), and the OD value was measured to reflect the survival and growth state of the cells, that is, the cell survival rate (%) and the cell growth inhibition rate (%).
(§2) The culture solution containing 10% FBS was regarded as a complete medium. […] After all the cells were cultured to logarithmic growth phase, the tests were performed as follows.
(§3) The adherent cells were digested by pancreatin and suspended to directly collect cells. The cell suspension was centrifuged, and after counted, the cells were seeded in a transparent 96-well culture plate and adjusted to 5×10^3 cells/100 μL/well with respective complete mediums. At the same time, each plate was provided with blank wells without cells and samples and control wells with cells but without samples. The 96-well culture plates were then cultured overnight in a 37° C., 5% CO2 incubator. The test compounds were added at 50 μL/well on the next day, and respective complete mediums were added at the same amount. […] While for the control wells and blank wells, complete mediums rather than the compound samples were added, where the complete culture medium was also added at 100 μL/well. […] 2 h before the end of the incubation, the culture medium was removed, and complete culture medium containing 10% CCK-8 solution was added at 100 μL/well.
(§4) The CC50 was calculated according to the survival rate (%) of Vero cells to reflect the cytotoxic effect of the compounds. The IC50 was calculated according to the growth inhibition (%) of the tumor cells to reflect the antitumor activity of the samples.

786-O cells (CRL-1932) = experiment: Tumor cell growth inhibition, CCK-8 assay; format: cell-based; settings: Homo sapiens, 786-0; 48 h, CCK-8, growth inhibition
Method: as §1, §2, §3, §4

HeLa cells (CCL-2) = experiment: Tumor cell growth inhibition, CCK-8 assay; format: cell-based; settings: Homo sapiens, 48 h, CCK-8, growth inhibition
Method: as §1, §2, §3, §4

Jurkat cells (TIB-152) = experiment: Tumor cell growth inhibition, CCK-8 assay; format: cell-based; settings: Homo sapiens, 48 h, CCK-8, growth inhibition
Method: as §1, §2, §3, §4

MCF7 cells (HTB-22) = experiment: Tumor cell growth inhibition, CCK-8 assay; format: cell-based; settings: Homo sapiens, 48 h, CCK-8, growth inhibition
Method: as §1, §2, §3, §4

PC-3 cells (CRL-1435) = experiment: Tumor cell growth inhibition, CCK-8 assay; format: cell-based; settings: Homo sapiens, 48 h, CCK-8, growth inhibition, read-out: PC3 IC50
Method: as §1, §2, §3, §4

A549 = experiment: Tumor cell growth inhibition; format: cell-based; settings: Homo sapiens
Method: as §3, §4

DU-145 = experiment: Inhibitory effects on various tumor cells; format: cell-based; settings: Homo sapiens; DU-145 cells
Method: as §3, §4

HC7116 = experiment: Inhibitory effects on various tumor cells; format: cell-based
Method: as §3, §4

HEPG-2 = experiment: Inhibitory effects on various tumor cells; format: cell-based; settings: Homo sapiens, HepG2; HEPG-2 cells
Method: as §3, §4

K562 = experiment: Inhibitory effects on various tumor cells; format: cell-based; settings: Homo sapiens
Method: as §3, §4

Kasumi = experiment: Inhibitory effects on various tumor cells; format: cell-based
Method: as §3, §4

NB4 = experiment: Inhibitory effects on various tumor cells; format: cell-based; settings: Homo sapiens, NB-4
Method: as §3, §4

OV-90 = experiment: Inhibitory effects on various tumor cells; format: cell-based; settings: Homo sapiens; OV-90 cells
Method: as §3, §4

RCC-4 = experiment: Inhibitory effects on various tumor cells; format: cell-based; settings: Homo sapiens, RCC4; RCC-4 cells
Method: as §3, §4

RCC4 vhl = experiment: Inhibitory effects on various tumor cells; format: cell-based; settings: Homo sapiens
Method: as §3, §4

SW1990 = experiment: Inhibitory effects on various tumor cells; format: cell-based; settings: Homo sapiens
Method: as §3, §4

U2OS = experiment: Inhibitory effects on various tumor cells; format: cell-based; settings: Homo sapiens
Method: as §3, §4

U87 = experiment: Inhibitory effects on various tumor cells; format: cell-based; settings: Homo sapiens, U-87 MG
Method: as §3, §4

[2] = test system: human non-small cell lung cancer cells A549; experiment: Xenograft model of human lung cancer cell A549; settings: nude mice, 10 mg/kg intraperitoneal, 28 days; for deaths during treatment: JZ-02 group 9 mice, paclitaxel group 5 mice; for tumor inhibition rate: from tumor tissue weight
Source text: 23 BALB/c nude mice, weighing 18-22 g and aged 2-4 weeks, were used in the experiment.

[3] = Vero normal cells, 48 h, CCK-8, cell survival rate, read-out: Vero CC50

| Compound | CC50 at 48 h [1] [nM] | IC50 (786-O cells (CRL-1932)) [nM] | IC50 (HeLa cells (CCL-2)) [nM] | IC50 (Jurkat cells (TIB-152)) [nM] | IC50 (MCF7 cells (HTB-22)) [nM] | IC50 (PC-3 cells (CRL-1435)) [nM] | IC50 (A549) [nM] | CC50 at 48 h [1, 3] [nM] | IC50 (DU-145) [nM] | IC50 (HC7116) [nM] | IC50 (HEPG-2) [nM] | IC50 (K562) [nM] | IC50 (Kasumi) [nM] | IC50 (NB4) [nM] | IC50 (OV-90) [nM] | IC50 (RCC-4) [nM] | IC50 (RCC4 vhl) [nM] | IC50 (SW1990) [nM] | IC50 (U2OS) [nM] | deaths during treatment [2] | other results |
| --- | --- | --- | --- | --- | --- | --- | --- | --- | --- | --- | --- | --- | --- | --- | --- | --- | --- | --- | --- | --- | --- |
| C[C@H]1[C@@H](O)O[C@@H]2O[C@@]3(C)CC[C@H]4[C@H](C)CC[C@@H]1[C@@]24OO3 [Dihydroartemisinin] | 5880 | 1100 | 1660 | 100000 | 100000 | 2020 | 2960 | – | – | – | – | – | – | – | – | – | – | – | – | – | – |
| C[C@H]1C(O[C@@H]2CC[C@@]3(C)C(C2)C[C@H](O)C2C3CC[C@@]3(C)C2CC[C@@H]3[C@H](C)CCC(=O)O)OC2OC3(C)CCC4[C@H](C)CCC1[C@@]24OO3 (stereo partly drawn) [JZ-2] | – | 60 | 40 | 240 | 3390 | 260 | 20 | 7810 | 625 | 157 | 500 | 157 | 157 | 157 | 157 | 2500 | 30000 | 517 | 357 | no death | IC50 (U87): 517 nM; tumor growth (tumor growth curve, FIG. 1) [2]: significantly inhibit the tumor growth; tumor inhibition rate [2]: 58% |
| C[C@H]1C(O[C@@H]2CC[C@@]3(C)C(C2)C[C@@H](O)C2C3CC[C@@]3(C)C2CC[C@@H]3[C@H](C)CCC(=O)O)OC2O[C@@]3(C)CCC4[C@H](C)CCC1[C@@]24OO3 (stereo partly drawn) [JZ-4] | – | 100000 | 25000 | 32000 | 35000 | 25000 | 2400 | 100000 | – | – | – | – | – | – | – | – | – | – | – | – | – |
| CC(C)[C@@H](C)/C=C/[C@@H](C)[C@H]1CCC2C3=CC=C4CC(OC5OC6OC7(C)CCC8[C@H](C)CCC([C@H]5C)[C@@]68OO7)CC[C@]4(C)C3CC[C@@]21C (stereo partly drawn) [JZ-6] | 100000 | 100000 | 100000 | 34000 | 45000 | 100000 | 6330 | – | – | – | – | – | – | – | – | – | – | – | – | – | – |
| CC(=O)O[C@H]1C(=O)[C@@]2(C)[C@H]([C@H](OC(=O)c3ccccc3)[C@]3(O)C[C@H](OC(=O)[C@H](O)[C@@H](NC(=O)c4ccccc4)c4ccccc4)C(C)=C1C3(C)C)[C@]1(OC(C)=O)CO[C@@H]1C[C@@H]2O [Taxol, paclitaxel, reference compound] | 1500 | 6 | 6 | 30 | 10 | 6 | 6 | – | 10 | 10 | 10 | 10 | 10 | 10 | 10 | 10000 | 30000 | 10 | 10 | one death | tumor inhibition rate [2]: 52% |
